Data published in patent publication US9393222B2, “Use of HDAC and/or DNMT inhibitors for treatment of ischemic injury” (The Trustees of the University of Pennsylvania, priority 2004, dated 2016).

Tests used:
[1] = tested on: myocardial ischemia-reperfusion injury; assay: Mouse myocardial ischemia-reperfusion (45 min LAD coronary artery occlusion, 24 h reperfusion), infarct size/area at risk; type: in vivo, mice
Procedure: Mice were injected with 5-aza-2′dC or saline, then subjected to ischemia. […] Both visual blanching and ST segment elevation on continuous ECG display confirmed myocardial ischemia. After 45 minutes, the PE-10 tubing was removed, permitting reperfusion. The sternotomy wound was closed in two layers with 4-0 Vicryl (Ethicon, Inc., Sommerville, N.J.) and the mouse extubated. 24 hours later, the mice were sacrificed, and infarcted and at-risk myocardial tissue was quantitated to determine infarct size.
The volume of viable myocardium remaining was determined by incubation of the tissue with 2% triphenyltetrazolium chloride: mice were euthanized by CO2 inhalation, the hearts were removed, and the aorta cannulated with a 21-gauge blunt-ended needle. Hearts were perfused with 3 ml of phosphate buffered saline solution, followed by 3 ml of 1% (2,3,5)-triphenyltetrazolium (TTC) at 37° C. The hearts were frozen at −80° C. for 20 minutes and cut into 1.5-mm slices. Each slice was individually weighed and photographed with incident light on both sides with a Leica DC200 CCD camera and MZ16 stereomicroscope (Leica Microsystems, Inc.) Infarct area was determined by visualizing TTC precipitate-excluded areas using NIH Image J software.
The volume of tissue at risk for ischemic injury (i.e. tissue lacking normal blood flow during the occlusion) was assessed by injection of the mice with FluoSphere 15-micron fluorescent microspheres (Molecular Probes/Invitrogen, Eugene, Oreg.) in the ascending aorta (clamped distally) after re-ligation of the left anterior descending coronary artery. The heart was sectioned, and fluorescence measured by cutting the tissue into 100 μm slices and determining the area of microsphere perfused cardiac tissue (perfused tissue) and the area excluded from microspheres (area at risk).
The volume of necrotic tissue was divided by the volume of tissue at risk for ischemic injury, to obtain the infarct size. Infarct size in the drug-treated groups was compared to the infarct size in the vehicle-treated group to determine the relative reduction in injury reported in the Table.
To ascertain the effect of DNMT inhibition on ischemic injury, mice were injected in the left ventricle with either the DNMT inhibitor 5-aza-2-deoxycytidine (5-aza-2′dC) or saline (negative control), then cardiac ischemia was induced by occlusion of the left anterior descending coronary artery for 45 minutes. The hearts were re-perfused for 24 hours, and the mice were sacrificed.
Mice were administered either the HDAC inhibitor TSA or vehicle (DMSO) alone, in the left ventricle. Ischemia was induced by occlusion of the left anterior descending coronary artery for 45 minutes, and mice were sacrificed following a 24-hour reperfusion period. The volume of infarcted and at-risk myocardial tissue was quantitated as described for Example 1.
To further characterize the effect of HDAC inhibitors and DNMT inhibitors on ischemic injury, a larger study was conducted, in which the HDAC inhibitor was added at several time points. In addition, a different HDAC inhibitor, Scriptaid (BioMol, Plymouth Meeting, Pa.), was tested, together with its corresponding negative control compound, Nullscript (Biomol). Ischemia was induced, and amounts of viable and necrotic tissue measured, as described for Example 1. A total of 217 mice were utilized in this Example, distributed as follows: Saline=38; DMSO=45; Nullscript=11; TSA-T1=31; TSA-T2=25; TSA-T3=15; Scriptaid=25; 5aza2′dC=27. […] In addition, HDAC inhibitors were effective when administered either before ischemia or 1 hour after ischemia.

[2] = tested on: histone H3 acetylation (acetyl-Lys9 H3); assay: Histone acetylation in ischemic myocardium, acid/urea gel and anti-acetyl H3 Western blot; type: in vivo, mice; conditions: pre-treatment (1 hour before ischemia)
Procedure: Cells were lysed in Triton X/deoxycholate buffer (20 millimolar [mM] HEPES, pH 7.2, 1% Triton X-100, 1% sodium deoxycholate, 100 mM sodium chloride, 50 mM sodium fluoride, 5 mM EDTA, 100 μM sodium molybdate, with protease inhibitors), and insoluble material was removed by a 15 minute (min) centrifugation in a microfuge, and the supernatant was subjected to 100,000×g, […] centrifugation. The pellet was extracted with 9 M urea, and the resulting pellet extracted with 0.3 M HCl.
40 centimeter (cm) acetic acid/urea gels were prepared as follows: The separating gel (0.75 millimeter [mm] thick) contained 15% acrylamide/0.2% methylenebisacrylamide, 4 molar (M) urea, and 5% acetic acid. The stacking gel contained 7.5% acrylamide/0.1% methylenebisacrylamide, 8 M urea, and 5% acetic acid. Proteins were solubilized in sample buffer (8 M urea, 5% acetic acid, 5% 2-mercaptoethanol, 25 milligram per milliliter (mg/ml) protamine sulfate, with methyl green) and loaded onto gels that had been pre-electrophoresed to a constant current and scavenged with […] cysteamine (Sigma-Aldrich). […]
To determine the effect of ischemia and HDAC inhibitors on histone acetylation, ischemia was induced in mice, as described in Example 1, and the degree of histone acetylation in myocardium was determined Histone acetylation was reduced in response to ischemia (FIG. 1).

[3] = time of treatment not given in Table 3
[4] = T1: treatment 1 hour before ischemia
[5] = T2: treatment 1 hour after ischemia
[6] = T3: treatment 12 hours after ischemia

SMILES: Nc1ncn([C@H]2C[C@H](O)[C@@H](CO)O2)c(=O)n1 [5-aza-2′dC, 5-aza-2-deoxycytidine]
- reduction of infarct size vs saline ([1]; mice, injected in left ventricle before 45 min LAD occlusion, 24 h reperfusion): 69.6%
- Ratio of infarct size/area at risk ([1]; mice, injected in left ventricle before 45 min LAD occlusion, 24 h reperfusion (Table 1)): 10.3%
- % decrease (w.r.t. DMSO) [1, 3]: 71.40%
- Infarct size/area at risk (±SEM) [1, 3]: 10.3% ± 0.03%

SMILES: O=C(CCCCCN1C(=O)c2cccc3cccc(c23)C1=O)NO [Scriptaid]
- % decrease (w.r.t. DMSO) [1, 4]: 44.20%
- Infarct size/area at risk (±SEM) [1, 4]: 21.2% ± 0.33%

SMILES: CC(/C=C/C(=O)NO)=C\[C@@H](C)C(=O)c1ccc(N(C)C)cc1 [TSA, trichostatin A]
- % decrease (w.r.t. DMSO) [1, 4]: 48.30%
- Infarct size/area at risk (±SEM) [1, 4]: 18.6% ± 0.04%
- % decrease (w.r.t. DMSO) [1, 5]: 55.60%
- Infarct size/area at risk (±SEM) [1, 5]: 16.0% ± 0.04%
- % decrease (w.r.t. DMSO) [1, 6]: 8.30%
- Infarct size/area at risk (±SEM) [1, 6]: 33.0% ± 0.05%
- reduction in infarct size vs DMSO vehicle ([1]; mice, administered in left ventricle, 45 min LAD occlusion, 24 h reperfusion): 48.3%
- Ratio of infarct size/area at risk ([1]; mice, administered in left ventricle, 45 min LAD occlusion, 24 h reperfusion (Table 2)): 18.6%
- effect on ischemia-induced reduction in histone acetylation [2]: partially prevented the reduction in histone acetylation

SMILES: O=C(CCCN1C(=O)c2cccc3cccc(c23)C1=O)NO [Nullscript]
- Infarct size/area at risk (±SEM) [1, 3]: 38.0% ± 0.56%
